A word on the IC50: it is the point on the concentration scale where inhibition reaches its midpoint.

The first test has as its target T1, GLUT1 (Homo sapiens, UniProt P11166).
T1 construct: endogenous in cells; host or cells: DLD1 or CHO-K1
T1 sequence (P11166 1-492): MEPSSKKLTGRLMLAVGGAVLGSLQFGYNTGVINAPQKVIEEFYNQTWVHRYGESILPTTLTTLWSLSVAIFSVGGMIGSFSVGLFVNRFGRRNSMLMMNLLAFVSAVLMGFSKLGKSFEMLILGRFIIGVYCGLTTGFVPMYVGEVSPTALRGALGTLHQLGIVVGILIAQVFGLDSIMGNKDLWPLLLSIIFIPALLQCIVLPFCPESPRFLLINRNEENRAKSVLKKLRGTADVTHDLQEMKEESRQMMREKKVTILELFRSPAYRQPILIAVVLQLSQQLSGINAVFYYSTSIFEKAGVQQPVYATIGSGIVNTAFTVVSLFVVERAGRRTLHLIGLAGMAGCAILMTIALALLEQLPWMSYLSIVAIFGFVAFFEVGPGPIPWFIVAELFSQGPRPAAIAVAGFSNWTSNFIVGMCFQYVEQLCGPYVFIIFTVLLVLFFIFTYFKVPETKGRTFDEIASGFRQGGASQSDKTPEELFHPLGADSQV
Briefly: Indirect measurement of GLUT activity by quantification of intracellular ATP levels: glucose induced ATP increase (GLUT1 inhibition). In kind it is cell-based. Particulars: DLD1 cells; 1 mM glucose, 1 uM Rotenone, 15 min; CellTiter-Glo ATP levels; IC50 values standardized to cytochalasin B IC50 values; read-out: IC50 regarding glucose induced ATP increase (GLUT1 inhibition). From the text: (§1) Indirect Measurement of GLUT Activity by Quantification of Intracellular ATP Levels
(§2) It is well known that a combination of small-molecule inhibitors of mitochondrial electron transport chain and glucose catabolism synergistically suppress ATP production and impair cellular viability (Ulanovskaya et al., 2008, 2011; Liu, et al. 2001). We therefore used DLD1 or CHO-K1 cells in combination with an oxidative phosphorylation inhibitor to identify GLUT inhibitors. Cell lines were maintained in DMEM medium supplemented with 10% FCS and 1% Penicillin-Streptomycin solution and 2% Glutamax. The cells were treated with trypsin and seeded into 384 plates at a density of 4000 cells/well. The cells were then cultured overnight in glucose free media containing 1% FCS to reduce intracellular ATP levels. After 24 h the cells were incubated at 37° C. containing the appropriate glucose or in case of GLUT2 fructose concentration (1 mM and 30 mM respectively) with or without compounds and 1 uM Rotenone for 15 min. The CellTiter-Glo® Luminescent Cell Viability Assay from Promega was then used to measure ATP levels. Compounds able to reduce the ATP levels within 15 min of glucose application were considered to be glucose uptake inhibitors.
In the case of `COc1cc(C(=O)Nc2cnn(Cc3ccc(C#N)cc3)c2C)c2ccccc2n1` [Example 10, N-[1-(4-cyanobenzyl)-5-methyl-1H-pyrazol-4-yl]-2-methoxyquinoline-4-carboxamide], the IC50 was found to be 87 nM. Consider `CC(C)c1c(NC(=O)c2cc(C(N)=O)nc3cc(F)ccc23)cnn1Cc1ccc(C#N)cc1` [Example 33, N^4-[1-(4-cyanobenzyl)-5-isopropyl-1H-pyrazol-4-yl]-7-fluoroquinoline-2,4-dicarboxamide], for which the half-maximal inhibitory concentration (IC50) was 940 nM. On the same count and under the same terms, for `Cc1ccc2nc(C)cc(C(=O)Nc3cnn(Cc4ccc(F)cc4)c3C)c2c1` [Example 1, N-[1-(4-fluorobenzyl)-5-methyl-1H-pyrazol-4-yl]-2,6-dimethylquinoline-4-carboxamide] the value was 9.4 nM. Take `O=C(Nc1cnn(Cc2ccc(F)cc2)c1C(=O)O)c1cc(C(F)(F)F)nc2ccc(Br)cc12` [Example 17, 4-({[6-bromo-2-(trifluoromethyl)quinolin-4-yl]carbonyl}amino)-1-(4-fluorobenzyl)-1H-pyrazole-5-carboxylic acid]: the IC50 was 10200 nM. On to `CCc1noc(Cn2ncc(NC(=O)c3cc(C(N)=O)nc4ccccc34)c2C)n1` [Example 37, N^4-{1-[(3-ethyl-1,2,4-oxadiazol-5-yl)methyl]-5-methyl-1H-pyrazol-4-yl}quinoline-2,4-dicarboxamide], for which the IC50 stood at 1920 nM. Consider `COc1cc(C(=O)Nc2cnn(Cc3ccc(F)cc3)c2C)c2ccccc2n1` [Example 3, N-[1-(4-fluorobenzyl)-5-methyl-1H-pyrazol-4-yl]-2-methoxyquinoline-4-carboxamide], for which the IC50 stood at 152 nM. The same measure, in the same setting: for `Cc1nc(Cn2ncc(NC(=O)c3cc(C(F)(F)F)nc4ccc(Br)cc34)c2C)cs1` [Example 41, 6-bromo-N-{5-methyl-1-[(2-methyl-1,3-thiazol-4-yl)methyl]-1H-pyrazol-4-yl}-2-(trifluoromethyl)quinoline-4-carboxamide] the value was 284 nM; for `Cc1c(NC(=O)c2cc(C(F)(F)F)nc3ccc(Br)cc23)cnn1Cc1ccc(C#N)cc1` [Example 8, 6-bromo-N-[1-(4-cyanobenzyl)-5-methyl-1H-pyrazol-4-yl]-2-(trifluoromethyl)quinoline-4-carboxamide], 12 nM. On to `Cc1c(NC(=O)c2cc(C(F)(F)F)nc3cc(F)c(F)cc23)cnn1Cc1ccc(F)cc1` [Example 2, 6,7-difluoro-N-[1-(4-fluorobenzyl)-5-methyl-1H-pyrazol-4-yl]-2-(trifluoromethyl)quinoline-4-carboxamide], for which the IC50 was determined as 124 nM. Turning to `Cc1c(NC(=O)c2cc(C3CC3)nc3ccc(Br)cc23)cnn1Cc1ccc(C#N)cc1` [Example 23, 6-bromo-N-[1-(4-cyanobenzyl)-5-methyl-1H-pyrazol-4-yl]-2-cyclopropylquinoline-4-carboxamide], the 50% inhibitory concentration (IC50) is 2.9 nM. For the compound `CCc1c(NC(=O)c2cc(C(N)=O)nc3cc(F)ccc23)cnn1Cc1ccc(C#N)cc1` [Example 30, N^4-[1-(4-cyanobenzyl)-5-ethyl-1H-pyrazol-4-yl]-7-fluoroquinoline-2,4-dicarboxamide], the IC50 is 46 nM.

In the case of `Cc1c(NC(=O)c2cc(C(N)=O)nc3ccccc23)cnn1Cc1ccccc1C#N` [Example 15, N^4-[1-(2-cyanobenzyl)-5-methyl-1H-pyrazol-4-yl]quinoline-2,4-dicarboxamide], the 50% inhibitory concentration (IC50) amounted to 755 nM.

In the case of `CCS(=O)(=O)N1CCC(Cn2ncc(NC(=O)c3cc(C(F)(F)F)nc4ccc(Br)cc34)c2C)CC1` [Example 38, 6-bromo-N-(1-{[1-(ethylsulfonyl)piperidin-4-yl]methyl}-5-methyl-1H-pyrazol-4-yl)-2-(trifluoromethyl)quinoline-4-carboxamide], the IC50 was determined as 615 nM. In the case of `Cc1c(NC(=O)c2cc(C(F)(F)F)nc3ccc(Br)cc23)cnn1Cc1ccccc1C#N` [Example 14, 6-bromo-N-[1-(2-cyanobenzyl)-5-methyl-1H-pyrazol-4-yl]-2-(trifluoromethyl)quinoline-4-carboxamide], the IC50 was 173 nM.

For `Cc1cc(Cn2ncc(NC(=O)c3cc(C(N)=O)nc4ccccc34)c2C)no1` [Example 45, N^4-{5-methyl-1-[(5-methyl-1,2-oxazol-3-yl)methyl]-1H-pyrazol-4-yl}quinoline-2,4-dicarboxamide], the half-inhibitory concentration (IC50) was 222 nM.

For the next test, the target named is T2, GLUT2 (Homo sapiens, UniProt P11168).
T2 construct: host or cells: DLD1 or CHO-K1
T2 sequence (P11168 1-524): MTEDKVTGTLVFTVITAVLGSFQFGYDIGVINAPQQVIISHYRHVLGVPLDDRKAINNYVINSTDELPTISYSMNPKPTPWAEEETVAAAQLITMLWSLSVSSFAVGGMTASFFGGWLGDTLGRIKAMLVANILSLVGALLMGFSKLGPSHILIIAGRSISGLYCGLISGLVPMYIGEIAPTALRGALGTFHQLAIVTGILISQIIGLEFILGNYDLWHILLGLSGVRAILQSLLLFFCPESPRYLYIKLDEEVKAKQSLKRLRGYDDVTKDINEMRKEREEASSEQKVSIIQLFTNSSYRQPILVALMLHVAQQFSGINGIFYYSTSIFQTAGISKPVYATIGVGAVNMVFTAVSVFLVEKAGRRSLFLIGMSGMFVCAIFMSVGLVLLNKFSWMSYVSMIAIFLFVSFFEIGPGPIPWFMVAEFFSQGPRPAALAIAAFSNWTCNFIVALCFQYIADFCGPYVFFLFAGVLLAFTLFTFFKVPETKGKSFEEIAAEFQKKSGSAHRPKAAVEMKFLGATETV
The test is described as follows: Indirect measurement of GLUT activity by quantification of intracellular ATP levels: fructose induced ATP increase (GLUT2 inhibition). It is filed as cell-based. Particulars: 30 mM fructose, 1 uM Rotenone, 15 min; CellTiter-Glo ATP levels; DLD1 or CHO-K1 cells; read-out: IC50 regarding fructose induced ATP increase (GLUT2 inhibition).
From the text: as §1, §2
On the technique in general: ATP-based viability assays read luminescence as a measure of living cells.
As to `COc1cc(C(=O)Nc2cnn(Cc3ccc(C#N)cc3)c2C)c2ccccc2n1` [Example 10, N-[1-(4-cyanobenzyl)-5-methyl-1H-pyrazol-4-yl]-2-methoxyquinoline-4-carboxamide], the IC50 turned out to be 1.65 µM.

In the case of `Cc1ccc2nc(C)cc(C(=O)Nc3cnn(Cc4ccc(F)cc4)c3C)c2c1` [Example 1, N-[1-(4-fluorobenzyl)-5-methyl-1H-pyrazol-4-yl]-2,6-dimethylquinoline-4-carboxamide], the concentration for half-maximal inhibition (IC50) amounted to 5.99 µM.

Values taken from patent publication US20170210738A1, “GLUCOSE TRANSPORT INHIBITORS” (Bayer Pharma Aktiengesellschaft, priority 2014, published 2017).
